This is an account of results in US20110059970A1, “4-PHENYL-1,3-THIAZOLES AND 4-PHENYL-1,3-OXAZOLES DERIVATIVES AS CANNABINOID RECEPTOR LIGANDS” (IPSEN PHARMA S.A.S., priority 2007, published 2011).

Counter-ions that a name gives are not always drawn.

The first data set deals with T1, human CB2 receptors (Homo sapiens, UniProt P34972).
T1 construct: expressed in transfected cells; membranes prepared from them
T1 sequence (P34972 whole entry): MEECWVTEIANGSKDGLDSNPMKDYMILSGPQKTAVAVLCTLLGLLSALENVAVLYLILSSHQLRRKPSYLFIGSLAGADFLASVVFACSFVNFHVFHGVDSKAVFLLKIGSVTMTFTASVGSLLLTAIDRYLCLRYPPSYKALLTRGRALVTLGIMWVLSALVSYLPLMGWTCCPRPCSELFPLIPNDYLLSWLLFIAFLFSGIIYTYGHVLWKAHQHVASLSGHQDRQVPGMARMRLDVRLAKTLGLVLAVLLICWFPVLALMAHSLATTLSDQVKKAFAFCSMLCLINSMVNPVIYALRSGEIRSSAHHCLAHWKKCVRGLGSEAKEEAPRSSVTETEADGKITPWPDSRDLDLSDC
The data set is described as follows: Affinity for human CB2 receptors: inhibition of [3H]-CP55940 binding to membranes of transfected CHO-K1 cells.
Details: not given
Here is the method: Study of the Affinity of the Compounds for Human Cannabinoid CB2 Receptors
The affinity of the compounds of the invention for human CB2 receptors was determined by measuring inhibition of [^3H]-CP55940 binding to membrane preparations produced from transfected CHO-K1 cells.
CHO-K1 cells stably expressing human CB2 receptors were cultured in RPMI 1640 medium supplemented with 10% foetal calf serum, 2 mM glutamine, 100 U/ml penicillin, 0.1 mg/ml streptomycin and 0.5 mg/ml G418. The cells were collected using 0.5 mM EDTA and centrifuged at 500 g for 5 min at 4° C. The cell pellet was resuspended in phosphate buffered saline (PBS) and centrifuged at 500 g for 5 min at 4° C. The pellet was resuspended in 50 mM tris buffer pH 7.4 and centrifuged at 500 g for 5 min at 4° C. The cells were lysed by sonication and centrifuged at 39,000 g for 10 min at 4° C. The pellet was resuspended in 50 mM tris buffer pH 7.4 and centrifuged at 50,000 g for 10 min at 4° C. The membranes obtained in this final pellet were stored at −80° C.
Competitive inhibition of the binding of [^3H]-CP55940 to CB2 receptors was determined in duplicate in 96-well polypropylene plates. Cell membranes (10 μg of protein/well) were incubated with [^3H]-CP55940 (1 nM) for 60 min at 25° C. in 50 mM Tris-HCl buffer, pH 7.4, containing 0.1% bovine serum albumin (BSA), 5 mM MgCl2, and 50 μg/ml of bacitracin.
Bound [^3H]-CP55940 was separated from free [^3H]-CP55940 by filtration through GF/C fibre glass filter plates (Unifilter, Packard) pre-impregnated with 0.1% polyethylenimine (P.E.I.), using a Filtermate 196 (Packard). The filters were washed with 50 mM Tris-HCl buffer, pH 7.4 at 0-4° C. and the radioactivity present was determined using a counter (Packard Top Count).
Specific binding was obtained by subtracting non-specific binding (determined in the presence of 0.1 μM WIN55212-2) from total binding. The data were analysed by computer-assisted nonlinear regression (MDL). For each test, the IC50 value was converted to a Ki value (inhibition constant) using the Cheng-Prusoff equation.
where [L] is the concentration of the radioligand used in the assay and Kd is the dissociation constant of the radioligand at equilibrium.
As for `COc1c(C(C)(C)C)cc(-c2csc(C3(N(C)C)CCOCC3)n2)cc1C(C)(C)C` [Example 2, {4-[4-(3,5-di-tert-butyl-4-methoxyphenyl)-1,3-thiazol-2-yl]tetrahydro-2H-pyran-4-yl}dimethylamine hydrochloride], the Ki was not above 100 nM.
The same measure, in the same setting: the result for `CN(C)C1(c2nc(-c3cc(C(C)(C)C)c(O)c(C(C)(C)C)c3)cs2)CCSCC1` [Example 6, 2,6-di-tert-butyl-4-{2-[4-(dimethylamino)tetrahydro-2H-thiopyran-4-yl]-1,3-thiazol-4-yl}phenol hydrochloride] reads not above 100 nM; that for `CN(C)C1(c2nc(-c3cc(C(C)(C)C)c(O)c(C(C)(C)C)c3)cs2)CCOC1` (stereo not drawn) [Example 7, 2,6-di-tert-butyl-4-{2-[3-(dimethylamino)tetrahydrofuran-3-yl]-1,3-thiazol-4-yl}phenol hydrochloride], 100 to 500 nM; that for `COc1c(Cl)cc(-c2csc(C3(N(C)C)CCOCC3)n2)cc1C(C)(C)C` [Example 13, {4-[4-(3-tert-butyl-5-chloro-4-methoxyphenyl)-1,3-thiazol-2-yl]tetrahydro-2H-pyran-4-yl}dimethylamine hydrochloride], 100 to 500 nM.
With `COc1ccc(-c2csc(C3(N(C)C)CCOCC3)n2)cc1C(C)(C)C` [Example 14, {4-[4-(3-tert-butyl-4-methoxyphenyl)-1,3-thiazol-2-yl]tetrahydro-2H-pyran-4-yl}dimethylamine hydrochloride], the Ki is 500 to 1000 nM.
On the same count and under the same terms, the result for `CN(C)C1(c2nc(-c3cc(C(C)(C)C)c(O)c(C(C)(C)C)c3)co2)CCOCC1` [Example 15, 2,6-di-tert-butyl-4-{2-[4-(dimethylamino)tetrahydro-2H-pyran-4-yl]-1,3-oxazol-4-yl}phenol hydrochloride] reads not above 100 nM; that for `CC(C)(C)c1cc(-c2csc(C3(N4CCCCC4)CCOCC3)n2)cc(C(C)(C)C)c1O` [Example 20, 2,6-di-tert-butyl-4-[2-(4-piperidin-1-yltetrahydro-2H-pyran-4-yl)-1,3-thiazol-4-yl]phenol hydrochloride], not above 100 nM.
The same measure, in the same setting: as for `CC(C)(C)c1cc(-c2csc(C3(N4CCOCC4)CCOCC3)n2)cc(C(C)(C)C)c1O` [Example 21, 2,6-di-tert-butyl-4-[2-(4-morpholin-4-yltetrahydro-2H-pyran-4-yl)-1,3-thiazol-4-yl]phenol], the figure is 100 to 500 nM; as for `COc1c(C(C)(C)C)cc(-c2nc(C3(N(C)C)CCOCC3)sc2C)cc1C(C)(C)C` [Example 25, {4-[4-(3,5-di-tert-butyl-4-methoxyphenyl)-5-methyl-1,3-thiazol-2-yl]tetrahydro-2H-pyran-4-yl}dimethylamine hydrochloride], 100 to 500 nM.

The data set is the same for the next values; noted with them: [3H]-CP55940 (1 nM) competition, CHO-K1 membranes; IC50 converted to Ki by Cheng-Prusoff; read-out: affinity for the CB2 receptor.
For the compound `CN(C)C1(c2nc(-c3cc(C(C)(C)C)c(O)c(C(C)(C)C)c3)cs2)CCOCC1` [Example 4, 2,6-di-tert-butyl-4-{2-[4-(dimethylamino)tetrahydro-2H-pyran-4-yl]-1,3-thiazol-4-yl}phenol hydrochloride], the Ki is not above 100 nM.
With `CN(C)C1(c2nc(-c3ccc(C(C)(C)C)cc3)cs2)CCOCC1` [Example 8, {4-[4-(4-tert-butylphenyl)-1,3-thiazol-2-yl]tetrahydro-2H-pyran-4-yl}dimethylamine hydrochloride], the Ki was 100 to 500 nM.
The same measure, in the same setting: the result for `CN(C)C1(c2nc(-c3cc(C(C)(C)C)cc(C(C)(C)C)c3)cs2)CCOCC1` [Example 11, {4-[4-(3,5-di-tert-butylphenyl)-1,3-thiazol-2-yl]tetrahydro-2H-pyran-4-yl}dimethylamine hydrochloride] reads 100 to 500 nM; that for `CN(C)C1(c2nc(-c3ccc(Oc4ccccc4)cc3)cs2)CCOCC1` [Example 16, N,N-dimethyl-4-[4-(4-phenoxyphenyl)-1,3-thiazol-2-yl]tetrahydro-2H-pyran-4-amine hydrochloride], 100 to 500 nM.
Still for that read-out and setting: as for `CCNC1(c2nc(-c3cc(C(C)(C)C)c(O)c(C(C)(C)C)c3)cs2)CCOCC1` [Example 17, 2,6-di-tert-butyl-4-{2-[4-(ethylamino)tetrahydro-2H-pyran-4-yl]-1,3-thiazol-4-yl}phenol], the figure is 100 to 500 nM; as for `CCN(CC)C1(c2nc(-c3cc(C(C)(C)C)c(O)c(C(C)(C)C)c3)cs2)CCOCC1` [Example 18, 2,6-di-tert-butyl-4-{2-[4-(diethylamino)tetrahydro-2H-pyran-4-yl]-1,3-thiazol-4-yl}phenol hydrochloride], not above 100 nM.
The same measure, in the same setting: the result for `CNC1(c2nc(-c3cc(C(C)(C)C)c(O)c(C(C)(C)C)c3)cs2)CCOCC1` [Example 19, 2,6-di-tert-butyl-4-{2-[4-(methylamino)tetrahydro-2H-pyran-4-yl]-1,3-thiazol-4-yl}phenol hydrochloride] reads 100 to 500 nM; that for `CN1CCC(c2nc(-c3cc(C(C)(C)C)c(O)c(C(C)(C)C)c3)cs2)(N(C)C)CC1` [Example 23, 2,6-di-tert-butyl-4-{2-[4-(dimethylamino)-1-methylpiperidin-4-yl]-1,3-thiazol-4-yl}phenol hydrochloride], 100 to 500 nM.
For `CCN(CC)c1ccc(-c2csc(C3(N(C)C)CCOCC3)n2)cc1` [Example 28, (4-{4-[4-(diethylamino)phenyl]-1,3-thiazol-2-yl}tetrahydro-2H-pyran-4-yl)dimethylamine hydrochloride], the Ki was 500 to 1000 nM.
Regarding `CN(C)C1(c2nc(-c3ccc(Cc4ccccc4)cc3)cs2)CCOCC1` [Example 29, {4-[4-(4-benzylphenyl)-1,3-thiazol-2-yl]tetrahydro-2H-pyran-4-yl}dimethylamine hydrochloride], the Ki is 500 to 1000 nM.
Still for that read-out and setting: the result for `CN(C)C1(c2nc(-c3ccc(Oc4ccc([N+](=O)[O-])cc4)cc3)cs2)CCOCC1` [Example 32, N,N-dimethyl-4-{4-[4-(4-nitrophenoxy)phenyl]-1,3-thiazol-2-yl}tetrahydro-2H-pyran-4-amine hydrochloride] reads 100 to 500 nM.
`CN(C)C1(c2nc(-c3ccc(Sc4ccccc4)cc3)cs2)CCOCC1` [Example 33, N,N-dimethyl-4-{4-[4-(phenylthio)phenyl]-1,3-thiazol-2-yl}tetrahydro-2H-pyran-4-amine hydrochloride]: the Ki is 500 to 1000 nM.

System in another data set: not given
Experiment: not given
Details: not given
As for `COc1c(C)cc(-c2csc(C3(N(C)C)CCOCC3)n2)cc1C` (as salt: hydrochloride), the melting point was 237.5 to 239 °C.
Still for that read-out and setting: as for `CN(C)C1(c2nc(-c3ccc(Oc4cccc(Cl)c4C#N)cc3)cs2)CCOCC1` (as salt: hydrochloride), the figure is 127 to 130 °C; as for `COc1ccc(Oc2ccc(-c3csc(C4(N(C)C)CCOCC4)n3)cc2)cc1` (as salt: hydrochloride), 120 to 121 °C.
Take `COc1c(-c2csc(C3(N(C)C)CCOCC3)n2)cc(C(C)(C)C)cc1C(C)(C)C` (as salt: hydrochloride): the melting point fell in the range of 199.4 to 200.7 °C.
On the same count and under the same terms, as for `COc1c(C(C)(C)C)cc(-c2csc(C3(N(C)C)CCOCC3)n2)cc1C(C)(C)C` (as salt: hydrochloride) [Example 2, {4-[4-(3,5-di-tert-butyl-4-methoxyphenyl)-1,3-thiazol-2-yl]tetrahydro-2H-pyran-4-yl}dimethylamine hydrochloride], the figure is 215 to 216.7 °C; as for `CN(C)C1(c2nc(-c3ccc(C(C)(C)C)cc3)cs2)CCOCC1` (as salt: hydrochloride) [Example 8, {4-[4-(4-tert-butylphenyl)-1,3-thiazol-2-yl]tetrahydro-2H-pyran-4-yl}dimethylamine hydrochloride], 205 to 207 °C.
Still for that read-out and setting: the result for `CN(C)C1(c2nc(-c3cc(C(F)(F)F)cc(C(F)(F)F)c3)cs2)CCOCC1` (as salt: hydrochloride) [Example 9, (4-{4-[3,5-bis(trifluoromethyl)phenyl]-1,3-thiazol-2-yl}tetrahydro-2H-pyran-4-yl)dimethylamine hydrochloride] reads 232.2 to 233 °C; that for `COc1c(Cl)cc(-c2csc(C3(N(C)C)CCOCC3)n2)cc1C(C)(C)C` (as salt: hydrochloride) [Example 13, {4-[4-(3-tert-butyl-5-chloro-4-methoxyphenyl)-1,3-thiazol-2-yl]tetrahydro-2H-pyran-4-yl}dimethylamine hydrochloride], 219.7 to 222.2 °C; that for `COc1ccc(-c2csc(C3(N(C)C)CCOCC3)n2)cc1C(C)(C)C` (as salt: hydrochloride) [Example 14, {4-[4-(3-tert-butyl-4-methoxyphenyl)-1,3-thiazol-2-yl]tetrahydro-2H-pyran-4-yl}dimethylamine hydrochloride], 232.7 to 233.5 °C.
